From patent US6015814A, “Quinazoline derivative” (Zeneca Limited, priority 1995, dated 2000)
pIC50: −log10 of the molar value.

Experiments:
[1] = biological target: T1, EGF receptor tyrosine kinase (Homo sapiens, UniProt P00533); experiment: in vitro assay, inhibition of EGF receptor tyrosine kinase (test (a)); assay type: biochemical, human (A-431 cells, derived from human vulval carcinoma); conditions: approximately
T1 construct: Receptor tyrosine kinase was obtained in partially purified form from A-431 cells; endogenous in cells; host or cells: A-431 cells (human vulval carcinoma)
T1 sequence (P00533 25-1210): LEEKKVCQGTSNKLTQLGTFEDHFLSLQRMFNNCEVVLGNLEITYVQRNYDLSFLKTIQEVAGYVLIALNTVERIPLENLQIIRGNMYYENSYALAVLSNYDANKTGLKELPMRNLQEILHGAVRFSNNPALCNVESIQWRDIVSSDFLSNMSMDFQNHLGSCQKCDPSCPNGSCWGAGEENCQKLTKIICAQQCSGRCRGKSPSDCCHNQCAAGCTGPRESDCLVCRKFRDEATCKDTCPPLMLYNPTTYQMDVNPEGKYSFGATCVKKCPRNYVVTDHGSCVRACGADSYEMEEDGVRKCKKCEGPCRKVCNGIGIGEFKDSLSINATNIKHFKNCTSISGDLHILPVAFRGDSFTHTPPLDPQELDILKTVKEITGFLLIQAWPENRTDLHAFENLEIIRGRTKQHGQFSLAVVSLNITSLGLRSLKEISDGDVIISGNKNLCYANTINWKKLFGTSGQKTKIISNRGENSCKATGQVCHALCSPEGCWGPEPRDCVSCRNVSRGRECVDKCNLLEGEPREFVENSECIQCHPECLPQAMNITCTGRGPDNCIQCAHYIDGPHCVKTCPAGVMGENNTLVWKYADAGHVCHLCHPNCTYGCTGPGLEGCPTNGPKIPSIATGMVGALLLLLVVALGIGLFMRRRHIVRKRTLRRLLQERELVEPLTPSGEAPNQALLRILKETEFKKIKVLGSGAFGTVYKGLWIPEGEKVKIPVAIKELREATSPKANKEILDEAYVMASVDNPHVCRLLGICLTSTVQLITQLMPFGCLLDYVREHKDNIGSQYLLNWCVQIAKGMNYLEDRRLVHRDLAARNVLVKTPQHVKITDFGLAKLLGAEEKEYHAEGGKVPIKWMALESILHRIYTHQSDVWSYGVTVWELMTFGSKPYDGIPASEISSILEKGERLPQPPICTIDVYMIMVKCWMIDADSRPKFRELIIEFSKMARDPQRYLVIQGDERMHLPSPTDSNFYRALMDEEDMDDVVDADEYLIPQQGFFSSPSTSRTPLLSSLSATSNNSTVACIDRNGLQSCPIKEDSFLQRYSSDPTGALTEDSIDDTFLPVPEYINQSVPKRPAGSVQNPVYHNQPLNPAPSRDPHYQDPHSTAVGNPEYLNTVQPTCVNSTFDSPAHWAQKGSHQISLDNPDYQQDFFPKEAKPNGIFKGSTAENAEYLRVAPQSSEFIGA
Experimental: (a) An in vitro assay which determines the ability of a test compound to inhibit the enzyme EGF receptor tyrosine kinase. Receptor tyrosine kinase was obtained in partially purified form from A-431 cells (derived from human vulval carcinoma) by the procedures described below which are related to those described by Carpenter et al., J. Biol. Chem., 1979. 254, 4884, Cohen et al., J. Biol. Chem., 1982, 257, 1523 and by Braun et al., J. Biol. Chem., 1984, 259, 2051.
A-431 cells were grown to confluence using Dulbecco's modified Eagle's medium (DMEM) containing 5% fetal calf serum (FCS). The obtained cells were homogenised in a hypotonic borate/EDTA buffer at pH 10.1. The homogenate was centrifuged at 400 g for 10 minutes at 0-4° C. The supernatant was centrifuged at 25,000 g for 30 minutes at 0-4° C. […]
The test compound/EGF mixture solution (5 μl) was added to the test enzyme solution (10 μl) and the mixture was incubated at 0-4° C. for 30 minutes. […] Radioactivity present in the filter paper was measured using a liquid scintillation counter (Sequence A). […]
Receptor tyrosine kinase inhibition was calculated as follows: [formula]
The extent of inhibition was then determined at a range of concentrations of test compound to give an IC50 value.

[2] = test system: human naso-pharyngeal cancer cell line KB; experiment: in vitro assay, inhibition of EGF-stimulated growth of the human naso-pharyngeal cancer cell line KB (test (b)); assay type: cell-based; conditions: 72 h, KB cells, 3 days, approximately
Experimental: (b) An in vitro assay which determines the ability of a test compound to inhibit the EGF-stimulated growth of the human naso-pharyngeal cancer cell line KB.
KB cells were seeded into wells at a density of 1×10^4 -1.5×10^4 cells per well and grown for 24 hours in DMEM supplemented with 5% FCS (charcoal-stripped). Cell growth was determined after incubation for 3 days by the extent of metabolism of MTT tetrazolium dye to furnish a bluish colour. Cell growth was then determined in the presence of EGF (10 ng/ml) or in the presence of EGF (10 ng/ml) and a test compound at a range of concentrations. An ICSO value could then be calculated.

[3] = test system: human vulval epidermoid carcinoma cell line A-431; experiment: in vivo assay, inhibition of growth of A-431 xenografts in athymic nude mice (test (c)); parameters: species or system human xenografts in athymic nude mice (strain ONU:Alpk); conditions: daily dose of 50 mg/kg; usually oral; relative to untreated controls
Experimental: (c) An in-vivo assay in a group of athymic nude mice (strain ONU:Alpk) which determines the ability of a test compound (usually administered orally as a ball-milled suspension in 0.5% polysorbate) to inhibit the growth of xenografts of the human vulval epidermoid carcinoma cell line A-431. A-431 cells were maintained in culture in DMEM supplemented with 5% FCS and 2 mM glutamine. Freshly cultured cells were harvested by trypsinization and injected subcutaneously (10 million cells/0.1 ml/mouse) into both flanks of a number of donor nude mice. When sufficient tumour material was available (after approximately 9 to 14 days), fragments of tumour tissue were transplanted in the flanks of recipient nude mice (test day 0). Generally, on the seventh day after transplantation (test day 7) groups of 7 to 10 mice with similar-sized tumours were selected and dosing of the test compound was commenced. Once daily dosing of test compound was continued for a total of 13 days (test days 7 to 19 inclusive). In some studies the dosing of the test compound was continued beyond test day 19, for example to test day 26. In each case, on the following test day the animals were killed and the final tumour volume was calculated from measurements of the length and width of the tumours. Results were calculated as a percentage inhibition of tumour volume relative to untreated controls.

[4] = test system: human mammary carcinoma which expresses EGF receptor tyrosine kinase; conditions: athymic nude mice; cited from earlier work
[5] = test system: another carcinoma which does not express EGF receptor tyrosine kinase; conditions: cited from earlier work

| pIC50 [1] | pIC50 [2] | Structure (SMILES) | inhibition of tumour volume, test (c) [3] | growth of transplanted human mammary carcinoma [4] | growth of another carcinoma [5] |
| --- | --- | --- | --- | --- | --- |
| ~7.12 | ~7.22 | Fc1ccc(Nc2ncnc3ccc(NCCCN4CCCC4)cc23)cc1Cl [Example 1, 4-(3'-chloro-4'-fluoroanilino)-6-[3-(pyrrolidin-1-yl)propylamino]quinazoline] | greater than 50% | – | – |
| – | – | O=CN/C=C/c1cc(O)ccc1O [erbstatin] | – | specifically attenuates the growth | without effect on the growth |
